*1 amine or outer side, *2 acyl side, *3 side chain or, on linkers, in order; H or OH if unused. Where a SMILES comes first, the peptide text is derived from it. Side-chain parts run from the residue outwards. [ ]: non-standard residue; d: D form. The star is where a group is joined. C20 diacid = O=C(O)CCCCCCCCCCCCCCCCCCC(=O)*; γGlu = O=C(O)[C@H](CCC(=O)[*:2])N[*:1]; εLys = N[C@@H](CCCCN[*:1])C(=O)[*:2]; Aib = CC(C)(N)C(=O)O
Key:
Test in all cases: Receptor activation: cAMP production by CRE-luciferase reporter in stably transfected BHK cells
Assay type in all cases: cell-based
Settings in all cases: compared to the native ligand for the receptor
hGLP-1 Receptor = molecular target: T1, hGLP-1 Receptor (Homo sapiens, UniProt P43220)
T1 construct: expressed in transfected cells; host or cells: baby hamster kidney (BHK) cells, stably transfected, with CRE-firefly luciferase reporter
Description: (§1) Cyclic AMP (cAMP) production was assessed as a proxy for receptor activation using stably transfected baby hamster kidney (BHK) cell lines expressing the DNA for one individual receptor (GLP-1R, GIPR, GcgR; human- or mouse-specific sequence) and the DNA for the firefly luciferase reporter gene linked to the cAMP response element (CRE). The cells were kept in continuous culture at 37 °C and 5% CO2 in Dulbecco's Modified Eagle Medium (DMEM) supplemented with 10% heat-inactivated fetal bovine serum (HI-FBS), 300 μg/mL hygromycin, and 500 μg/mL G418; for cell lines expressing GIPR, the G418 concentration was lowered to 400 μg/mL. Cells were plated in a 96-well poly-D-lysine-coated plate at 5,000 cells per well in growth media and incubated overnight at 37 °C with 5% CO2. After the overnight incubation, the media was removed, the plate was washed once in Dulbecco's phosphase-buffered saline (DPBS), and 50 μL of assay buffer (DMEM without phenol red, 10 mM HEPES, 1x Glutamax, 1% ovalbumin, 0.1% Pluronic F-68) was added to each well. […] Aliquots of the dilution curves were added to the cell plate in a volume of 50 μL per well resulting in final assay concentrations ranging from 1 × 10^−14 to 1 × 10^−7 M. The assay plate was incubated for 3 h at 37 °C and 5% CO2. After the incubation, the assay plate was washed once with DPBS. A 100 μL aliquot of DPBS was added to each well followed by 100 μL of steadylite plus reagent (PerkinElmer). The assay plate was covered to protect reagent from light, shaken at 250 rpm at room temperature for 30 min, and read in a microtiter plate reader. EC50 values were calculated using Prism software (GraphPad) with the nonlinear regression log(agonist) vs. response. A minimum of two replicates were measured for each sample.

hGIP Receptor = molecular target: T2, hGIP Receptor (Homo sapiens, UniProt P48546)
T2 construct: expressed in transfected cells; host or cells: baby hamster kidney (BHK) cells, stably transfected, with CRE-firefly luciferase reporter
T2 sequence (P48546 22-466): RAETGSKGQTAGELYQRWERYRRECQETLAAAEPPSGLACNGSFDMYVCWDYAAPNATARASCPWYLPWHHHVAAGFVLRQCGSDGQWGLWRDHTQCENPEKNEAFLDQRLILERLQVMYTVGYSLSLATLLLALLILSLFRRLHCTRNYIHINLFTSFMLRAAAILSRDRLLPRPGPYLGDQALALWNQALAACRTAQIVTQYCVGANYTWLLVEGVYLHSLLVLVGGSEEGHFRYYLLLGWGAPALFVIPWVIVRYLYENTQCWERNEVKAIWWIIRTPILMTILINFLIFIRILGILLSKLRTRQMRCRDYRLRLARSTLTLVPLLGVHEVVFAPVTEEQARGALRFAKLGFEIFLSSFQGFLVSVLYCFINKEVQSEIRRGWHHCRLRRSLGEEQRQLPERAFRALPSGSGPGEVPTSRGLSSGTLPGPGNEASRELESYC
Description: as §1

hGcg Receptor = molecular target: T3, hGcg Receptor (Homo sapiens, UniProt P47871)
T3 construct: expressed in transfected cells; host or cells: baby hamster kidney (BHK) cells, stably transfected, with CRE-firefly luciferase reporter
Description: as §1

T3 sequence (P47871 26-477): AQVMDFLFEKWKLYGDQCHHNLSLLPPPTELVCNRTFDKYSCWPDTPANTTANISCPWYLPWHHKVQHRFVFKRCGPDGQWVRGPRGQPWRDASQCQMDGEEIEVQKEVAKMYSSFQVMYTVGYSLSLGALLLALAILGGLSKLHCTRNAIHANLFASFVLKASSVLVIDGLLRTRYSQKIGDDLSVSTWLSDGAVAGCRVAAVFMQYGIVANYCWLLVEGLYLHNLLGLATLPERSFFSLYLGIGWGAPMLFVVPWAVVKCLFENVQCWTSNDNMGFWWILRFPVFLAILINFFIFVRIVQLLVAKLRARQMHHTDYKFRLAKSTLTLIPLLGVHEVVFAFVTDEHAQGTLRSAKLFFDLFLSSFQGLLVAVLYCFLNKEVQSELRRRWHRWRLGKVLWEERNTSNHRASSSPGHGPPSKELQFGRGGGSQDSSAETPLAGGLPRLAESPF
T1 sequence (P43220 24-463): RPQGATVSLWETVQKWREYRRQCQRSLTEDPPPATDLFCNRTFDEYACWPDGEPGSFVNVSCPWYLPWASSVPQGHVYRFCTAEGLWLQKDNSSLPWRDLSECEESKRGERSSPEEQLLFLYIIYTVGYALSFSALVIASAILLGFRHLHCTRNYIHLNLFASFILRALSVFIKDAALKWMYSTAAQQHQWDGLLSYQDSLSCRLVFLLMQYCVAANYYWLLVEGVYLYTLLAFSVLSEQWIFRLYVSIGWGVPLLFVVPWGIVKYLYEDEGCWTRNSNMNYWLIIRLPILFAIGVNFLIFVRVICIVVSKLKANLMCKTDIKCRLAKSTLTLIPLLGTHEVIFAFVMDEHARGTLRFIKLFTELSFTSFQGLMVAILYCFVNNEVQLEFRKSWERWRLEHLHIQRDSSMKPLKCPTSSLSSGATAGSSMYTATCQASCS

Row | Structure (SMILES) | hGLP-1 Receptor Relative Potency % (hGLP-1 Receptor) | hGIP Receptor Relative Potency % (hGIP Receptor) | hGcg Receptor Relative Potency % (hGcg Receptor)
1 | CC[C@H](C)[C@H](NC(=O)[C@H](CO)NC(=O)[C@H](Cc1ccc(O)cc1)NC(=O)[C@H](CC(=O)O)NC(=O)[C@H](CO)NC(=O)[C@@H](NC(=O)[C@H](Cc1ccccc1)NC(=O)[C@@H](NC(=O)CNC(=O)[C@H](CCC(N)=O)NC(=O)C(C)(C)NC(=O)[C@@H](N)Cc1c[nH]cn1)[C@@H](C)O)[C@@H](C)O)C(=O)N[C@@H](Cc1ccc(O)cc1)C(=O)N[C@@H](CC(C)C)C(=O)N[C@@H](CCC(=O)O)C(=O)N[C@@H](CCCCNC(=O)[C@@H](N)CCCCNC(=O)[C@@H](N)CCCCNC(=O)CC[C@H](NC(=O)CCCCCCCCCCCCCCCCCCC(=O)O)C(=O)O)C(=O)N[C@@H](CCC(N)=O)C(=O)N[C@@H](C)C(=O)N[C@@H](C)C(=O)NC(C)(C)C(=O)N[C@@H](CCC(=O)O)C(=O)N[C@@H](Cc1ccccc1)C(=O)N[C@H](C(=O)N[C@@H](CCC(N)=O)C(=O)N[C@@H](Cc1c[nH]c2ccccc12)C(=O)N[C@@H](CC(C)C)C(=O)N[C@@H](CC(C)C)C(=O)N[C@@H](CCC(=O)O)C(=O)NCC(=O)NCC(=O)N1CCC[C@H]1C(=O)N[C@@H](CO)C(=O)N[C@@H](CO)C(=O)NCC(=O)N[C@@H](C)C(=O)N1CCC[C@H]1C(=O)N1CCC[C@H]1C(=O)N1CCC[C@H]1C(=O)N[C@@H](CO)C(N)=O)C(C)C [Compound 12] (H-H[Aib]QGTFTSDYSIYLEK([εLys-εLys-γGlu-C20 diacid])QAA[Aib]EFVQWLLEGGPSSGAPPPS-NH2) | 410% | 19% | 3%
2 | CC[C@H](C)[C@H](NC(=O)[C@H](CO)NC(=O)[C@H](Cc1ccc(O)cc1)NC(=O)[C@H](CC(=O)O)NC(=O)[C@H](CO)NC(=O)[C@@H](NC(=O)[C@H](Cc1ccccc1)NC(=O)[C@@H](NC(=O)CNC(=O)[C@H](Cc1c[nH]cn1)NC(=O)C(C)(C)NC(=O)[C@@H](N)Cc1c[nH]cn1)[C@@H](C)O)[C@@H](C)O)C(=O)N[C@@H](Cc1ccc(O)cc1)C(=O)N[C@@H](CC(C)C)C(=O)N[C@@H](CCC(=O)O)C(=O)N[C@@H](CCCCNC(=O)[C@@H](N)CCCCNC(=O)[C@@H](N)CCCCNC(=O)CC[C@H](NC(=O)CCCCCCCCCCCCCCCCCCC(=O)O)C(=O)O)C(=O)N[C@@H](CCC(N)=O)C(=O)N[C@@H](C)C(=O)N[C@@H](C)C(=O)NC(C)(C)C(=O)N[C@@H](CCC(=O)O)C(=O)N[C@@H](Cc1ccccc1)C(=O)N[C@H](C(=O)N[C@@H](CCC(N)=O)C(=O)N[C@@H](Cc1c[nH]c2ccccc12)C(=O)N[C@@H](CC(C)C)C(=O)N[C@@H](CC(C)C)C(=O)N[C@@H](CCC(=O)O)C(=O)NCC(=O)NCC(=O)N1CCC[C@H]1C(=O)N[C@@H](CO)C(=O)N[C@@H](CO)C(=O)NCC(=O)N[C@@H](C)C(=O)N1CCC[C@H]1C(=O)N1CCC[C@H]1C(=O)N1CCC[C@H]1C(=O)N[C@@H](CO)C(N)=O)C(C)C [Compound 13] (H-H[Aib]HGTFTSDYSIYLEK([εLys-εLys-γGlu-C20 diacid])QAA[Aib]EFVQWLLEGGPSSGAPPPS-NH2) | 340% | 146% | 19%
3 | CC[C@H](C)[C@H](NC(=O)[C@H](CO)NC(=O)[C@H](Cc1ccc(O)cc1)NC(=O)[C@H](CC(=O)O)NC(=O)[C@H](CO)NC(=O)[C@@H](NC(=O)[C@H](Cc1ccccc1)NC(=O)[C@@H](NC(=O)CNC(=O)[C@H](Cc1c[nH]cn1)NC(=O)C(C)(C)NC(=O)[C@@H](N)Cc1c[nH]cn1)[C@@H](C)O)[C@@H](C)O)C(=O)N[C@@H](Cc1ccc(O)cc1)C(=O)N[C@@H](CC(C)C)C(=O)N[C@@H](CCC(=O)O)C(=O)N[C@@H](CCCCNC(=O)[C@@H](N)CCCCNC(=O)[C@@H](N)CCCCNC(=O)CC[C@H](NC(=O)CCCCCCCCCCCCCCCCCCC(=O)O)C(=O)O)C(=O)N[C@@H](CCCCN)C(=O)N[C@@H](C)C(=O)N[C@@H](C)C(=O)NC(C)(C)C(=O)N[C@@H](CCC(=O)O)C(=O)N[C@@H](Cc1ccccc1)C(=O)N[C@H](C(=O)N[C@@H](CCC(N)=O)C(=O)N[C@@H](Cc1c[nH]c2ccccc12)C(=O)N[C@@H](CC(C)C)C(=O)N[C@@H](CC(C)C)C(=O)N[C@@H](CCC(=O)O)C(=O)NCC(=O)NCC(=O)N1CCC[C@H]1C(=O)N[C@@H](CO)C(=O)N[C@@H](CO)C(=O)NCC(=O)N[C@@H](C)C(=O)N1CCC[C@H]1C(=O)N1CCC[C@H]1C(=O)N1CCC[C@H]1C(=O)N[C@@H](CO)C(N)=O)C(C)C [Compound 14] (H-H[Aib]HGTFTSDYSIYLEK([εLys-εLys-γGlu-C20 diacid])KAA[Aib]EFVQWLLEGGPSSGAPPPS-NH2) | 211% | 142% | 69%
4 | CC[C@H](C)[C@H](NC(=O)[C@H](CO)NC(=O)[C@H](Cc1ccc(O)cc1)NC(=O)[C@H](CC(=O)O)NC(=O)[C@H](CO)NC(=O)[C@@H](NC(=O)[C@H](Cc1ccccc1)NC(=O)[C@@H](NC(=O)CNC(=O)[C@H](Cc1c[nH]cn1)NC(=O)C(C)(C)NC(=O)[C@@H](N)Cc1c[nH]cn1)[C@@H](C)O)[C@@H](C)O)C(=O)N[C@@H](Cc1ccc(O)cc1)C(=O)N[C@@H](CC(C)C)C(=O)N[C@@H](CCC(=O)O)C(=O)N[C@@H](CCCCNC(=O)[C@@H](N)CCCCNC(=O)[C@@H](N)CCCCNC(=O)CC[C@H](NC(=O)CCCCCCCCCCCCCCCCCCC(=O)O)C(=O)O)C(=O)N[C@@H](CCC(N)=O)C(=O)N[C@@H](Cc1ccc(O)cc1)C(=O)N[C@@H](C)C(=O)NC(C)(C)C(=O)N[C@@H](CCC(=O)O)C(=O)N[C@@H](Cc1ccccc1)C(=O)N[C@H](C(=O)N[C@@H](CCC(N)=O)C(=O)N[C@@H](Cc1c[nH]c2ccccc12)C(=O)N[C@@H](CC(C)C)C(=O)N[C@@H](CC(C)C)C(=O)N[C@@H](CCC(=O)O)C(=O)NCC(=O)NCC(=O)N1CCC[C@H]1C(=O)N[C@@H](CO)C(=O)N[C@@H](CO)C(=O)NCC(=O)N[C@@H](C)C(=O)N1CCC[C@H]1C(=O)N1CCC[C@H]1C(=O)N1CCC[C@H]1C(=O)N[C@@H](CO)C(N)=O)C(C)C [Compound 15] (H-H[Aib]HGTFTSDYSIYLEK([εLys-εLys-γGlu-C20 diacid])QYA[Aib]EFVQWLLEGGPSSGAPPPS-NH2) | 101% | 135% | 72%
